# Experimental data: paper PMC7306898, “Concentration-Dependent Activity of Hydromethylthionine on Clinical Decline and Brain Atrophy in a Randomized Controlled Trial in Behavioral Variant Frontotemporal Dementia” (Journal of Alzheimer's Disease, 2020)
# Tests used:
# [1] = system: bvFTD patients; assay: Frontotemporal volume (FTV) change by MRI (Tensor-Based Morphometry); format: in vivo, human; conditions: Patients receiving 8 mg/day, vs Cmax,ss ≤[…], 52 weeks
# Excerpt: The two doses were provided in identical blister packages as visually identical oral tablets to be taken for up to 52 weeks. The primary outcome was the Addenbrookes Cognitive Examination – Revised (ACE-R). The Functional Activities Questionnaire (FAQ) and reduction in progression of whole brain atrophy were alternative co-primary outcomes. Other outcomes included: Modified Alzheimer’s Disease Cooperative Study – Clinical Global Impression of Change (Modified-CGIC) determined by a third independent rater; Frontotemporal Dementia Rating Scale (FRS); MMSE (from MMSE items incorporated into ACE-R); Addenbrookes Cognitive Examination – III (a revised version of ACE-R which excludes MMSE items subject to copyright restrictions); change in brain volume measured by MRI in frontal and temporal lobes (FTV) and lateral ventricles (LVV); and the effect of hydromethylthionine in patients with known genetic mutations associated with bvFTD. Blood was collected prospectively for the purpose of population PK analyses.
# MRI scans were obtained at screening and weeks 16, 32, and 52. The acquisition protocol was standardized across sites and all data were centrally collected, quality-controlled, and analyzed by the imaging core laboratory (Bioclinica). MRI data included a 3D sagittal T1-weighted sequence (using parameters compatible with the ADNI protocol) which was used for all volumetric analyses. […]
# [2] = system: bvFTD patients; assay: UPDRS Part III motor safety outcome, 52-week Phase III trial; format: in vivo, human
# Description: The primary analyses were specified as a mixed model, repeated-measures analysis with an unstructured covariance matrix and no imputation for missing data. The model included visit (three levels corresponding to assessments at weeks 16, 32, and 52), treatment group (two levels, 4 mg or 100 mg twice a day), a visit by treatment group interaction term, use of AD-labelled medications (two levels, using or not using), geographic region (three levels: North America, Asia/Australia, Europe), and baseline value of the variable analyzed. The individual comparisons were implemented through contrasts. The Bonferroni-Holm correction was used to take account of multiplicity arising from alternative co-primary outcomes (FAQ and whole brain atrophy). We used the same method for all secondary analyses in predefined gated sequences such that no further adjustment of alpha (0.05) was needed.
# Blood samples for assessment of parent MT, N-desmethyl MT, and total MT (sum of parent MT and a labile LMT conjugate), were collected from each patient on the first treatment visit (two samples: pre-dose and approximately 3.5 h after the dose) and at each subsequent on-treatment visit. […] MT levels in plasma were measured using liquid chromatography-tandem mass spectrometry assay. […] Model development and estimation of steady state maximum plasma concentration (Cmax,ss) were determined independently by the Institute of Clinical Pharmacodynamics (ICPD, NY, USA). Cmax,ss estimates using a model validated in Phase I studies were based on in-clinic plasma concentration data obtained on Day 1 when the dose-sampling interval was accurately recorded. […] Change in ACE-R, ACE-III, FAQ, MMSE, Modified-CGIC, FRS, whole brain volume (WBV), lateral ventricular volume (LVV), and frontotemporal volume (FTV), as well as UPDRS Part III, were expressed as a function of Cmax,ss estimates grouped into four groups described in the results section. […]
# [3] = system: bvFTD patients; assay: Safety: treatment emergent adverse events, Safety Population; conditions: for deaths: none judged related to treatment
# Description: Patients were monitored throughout the study for adverse events, including use of clinical laboratory tests (including measurement of methaemoglobin by pulse CO-oximetry), physical and neurological examinations, and 12-lead electrocardiograms (ECG) at all clinic visits (screening, baseline, and weeks 2, 16, 32, 52, and 56). The Unified Parkinson’s Disease Rating Scale Part III (UPDRS) [58] was included as a motor safety outcome measure requested by a regulatory agency, as was the Columbia-Suicide Severity Rating Scale (C-SSRS) [59], which were assessed at all visits. Patients were also systematically monitored for potential serotonin syndrome using a rating scale derived from four published diagnostic criteria [60], because of a theoretical potential for serotonin syndrome [61]. By protocol, amyloid related imaging abnormalities (ARIA), serotonin toxicity, and suicidality were to be reported as serious adverse events for expedited reporting.
# [4] = 8 mg/day (n = 110), Safety Population
# [5] = 200 mg/day (n = 108), Safety Population
smiles,measurement,setting,value
"CN(C)c1ccc2c(c1)Sc1cc(N(C)C)ccc1N2 [hydromethylthionine, leuco-methylthioninium bis(hydromethanesulphonate)]","FTV: Difference±SEM for Cmax,ss > […]",[1],0.72±0.27 cm^3
same,UPDRS – part III: Decline±SEM for LMTM 8 mg/day group,"[2]; 8 mg/day (n = 110), modeled change from baseline at 52 weeks",3.90±1.06
same,"reduction in decline, UPDRS","[2]; 8 mg/day, plasma levels above vs below […] threshold",75%
same,UPDRS – part III: Difference±SEM from LMTM 8 mg/day for 200 mg/day,"[2]; 200 mg/day (n = 104) vs 8 mg/day, 52 weeks",–1.40±1.61
same,patients with TEAEs judged by the Investigator to be related to study drug,[3]; 8 mg/day,30%
same,"patients with a TEAE resulting in a dose reduction, interruption, or withdrawal of study drug",[3]; 8 mg/day,15 [14%]
same,patients with at least one severe TEAE,[3]; 8 mg/day,13 (12%)
same,subjects with myoclonus reported as an AE,[3]; 8 mg/day,2
same,withdrawal rate over 12 months,[3]; 8 mg/day,15%
same,Number (%) of Patients Reporting at Least One Adverse Event (TEAE),[3]; [4],88 (80%)
same,Number (%) of patients with TEAE: Agitation,[3]; [4],9 (8.2%)
same,Number (%) of patients with TEAE: Blood folate decreased,[3]; [4],6 (5.5%)
same,Number (%) of patients with TEAE: Cough,[3]; [4],7 (6.4%)
same,Number (%) of patients with TEAE: Diarrhea,[3]; [4],9 (8.2%)
same,Number (%) of patients with TEAE: Dysuria,[3]; [4],0
same,Number (%) of patients with TEAE: Fall,[3]; [4],10 (9.1%)
same,Number (%) of patients with TEAE: Folate deficiency,[3]; [4],2 (1.8%)
same,Number (%) of patients with TEAE: Gastrointestinal disorders,[3]; [4],28 (25.5%)
same,Number (%) of patients with TEAE: Headache,[3]; [4],8 (7.3%)
same,Number (%) of patients with TEAE: Infections and infestations,[3]; [4],38 (34.5%)
same,"Number (%) of patients with TEAE: Injury, poisoning and procedural complications",[3]; [4],18 (16.4%)
same,Number (%) of patients with TEAE: Insomnia,[3]; [4],3 (2.7%)
same,Number (%) of patients with TEAE: Investigations,[3]; [4],17 (15.5%)
same,Number (%) of patients with TEAE: Metabolism and nutrition disorders,[3]; [4],12 (10.9%)
same,Number (%) of patients with TEAE: Nasopharyngitis,[3]; [4],8 (7.3%)
same,Number (%) of patients with TEAE: Pollakiuria,[3]; [4],3 (2.7%)
same,Number (%) of patients with TEAE: Psychiatric disorders,[3]; [4],29 (26.4%)
same,Number (%) of patients with TEAE: Renal and urinary disorders,[3]; [4],25 (22.7%)
same,"Number (%) of patients with TEAE: Respiratory, thoracic and mediastinal disorders",[3]; [4],12 (10.9%)
same,Number (%) of patients with TEAE: Urinary incontinence,[3]; [4],13 (11.8%)
same,Number (%) of patients with TEAE: Urinary tract infection,[3]; [4],13 (11.8%)
same,Number (%) of patients with TEAE: Vomiting,[3]; [4],5 (4.5%)
same,Number (%) of patients with TEAE: White blood cells urine positive,[3]; [4],1 (0.9%)
same,Number (%) of Patients Reporting at Least One Adverse Event (TEAE),"[3]; 8 mg/day (n = 110), Safety Population, listed as Hydromethylthionine",88 (80.0%)
same,frequency of renal and urinary disorders,"[3]; 8 mg/day, above-threshold plasma levels",26%
same,frequency of renal and urinary disorders,"[3]; 8 mg/day, below-threshold plasma levels",18%
same,deaths,[3]; 8 mg/day,1
same,patients with TEAEs judged by the Investigator to be related to study drug,[3]; 200 mg/day,56%
same,"patients with a TEAE resulting in a dose reduction, interruption, or withdrawal of study drug",[3]; 200 mg/day,35 [32%]
same,patients with at least one severe TEAE,[3]; 200 mg/day,17 (16%)
same,subjects with myoclonus reported as an AE,[3]; 200 mg/day,1
same,withdrawal rate over 12 months,[3]; 200 mg/day,38%
same,Number (%) of Patients Reporting at Least One Adverse Event (TEAE),[3]; [5],103 (95.4%)
same,Number (%) of patients with TEAE: Agitation,[3]; [5],9 (8.3%)
same,Number (%) of patients with TEAE: Blood folate decreased,[3]; [5],9 (8.3%)
same,Number (%) of patients with TEAE: Cough,[3]; [5],2 (1.9%)
same,Number (%) of patients with TEAE: Diarrhea,[3]; [5],24 (22.2%)
same,Number (%) of patients with TEAE: Dysuria,[3]; [5],6 (5.6%)
same,Number (%) of patients with TEAE: Fall,[3]; [5],13 (12.0%)
same,Number (%) of patients with TEAE: Folate deficiency,[3]; [5],6 (5.6%)
same,Number (%) of patients with TEAE: Gastrointestinal disorders,[3]; [5],42 (38.9%)
same,Number (%) of patients with TEAE: Headache,[3]; [5],5 (4.6%)
same,Number (%) of patients with TEAE: Infections and infestations,[3]; [5],34 (31.5%)
same,"Number (%) of patients with TEAE: Injury, poisoning and procedural complications",[3]; [5],16 (14.8%)
same,Number (%) of patients with TEAE: Insomnia,[3]; [5],7 (6.5%)
same,Number (%) of patients with TEAE: Investigations,[3]; [5],34 (31.5%)
same,Number (%) of patients with TEAE: Metabolism and nutrition disorders,[3]; [5],14 (13.0%)
same,Number (%) of patients with TEAE: Nasopharyngitis,[3]; [5],7 (6.5%)
same,Number (%) of patients with TEAE: Nervous system disorders,[3]; [5],27 (25.0%)
same,Number (%) of patients with TEAE: Pollakiuria,[3]; [5],10 (9.3%)
same,Number (%) of patients with TEAE: Psychiatric disorders,[3]; [5],31 (28.7%)
same,Number (%) of patients with TEAE: Renal and urinary disorders,[3]; [5],28 (25.9%)
same,"Number (%) of patients with TEAE: Respiratory, thoracic and mediastinal disorders",[3]; [5],8 (7.4%)
same,Number (%) of patients with TEAE: Urinary incontinence,[3]; [5],9 (8.3%)
same,Number (%) of patients with TEAE: Urinary tract infection,[3]; [5],14 (13.0%)
same,Number (%) of patients with TEAE: Vomiting,[3]; [5],9 (8.3%)
same,Number (%) of patients with TEAE: White blood cells urine positive,[3]; [5],6 (5.6%)
same,deaths,[3]; 200 mg/day,3
same,serotonin syndrome reported as an AE,"[3]; both doses, 20-item structured examination",No subject had serotonin syndrome reported as an AE
